Like-named read-outs stand apart in the source and are kept apart here.
Columns and labels:
[1] = test system: T-Rex 293 cell line SC3 cells having increased expression of androgen receptor protein; assay: Cellular growth inhibition, T-Rex 293 SC3 cells with increased androgen receptor expression (doxycycline), CellTiter-Glo; format: cell-based; details: T-Rex 293 SC3 cells with increased androgen receptor expression (exposed to 10 ng/mL doxycycline), 72 hours, CellTiter-Glo; read-out: GI50
Method: (§1) The following types of cells were prepared for this experiment: (i) a T-Rex 293 cell line having increased expression of androgen receptor protein due to exposure to doxycycline and (ii) a T-Rex 293 cell line lacking increased expression of androgen receptor protein. Ability of the test compounds to inhibit proliferation of the foregoing cell types was evaluated according to the procedures set forth below.
(§2) The doxycycline-inducible androgen receptor protein expressing cell line was established using the following protocol: T-Rex 293 cells were purchased from Invitrogen (Cat #R71007) and transfected using Lipofectamine 2000 with the wild-type androgen receptor protein sequence cloned into the pcDNA4/TO vector. Transfected cells were selected using 400 μg/mL Zeocin (Invitrogen Cat #R25001). Following selection, single clones were raised and maintained in Dulbecco's Modified Eagle Medium (DMEM) supplemented with 10% w/w Tetracycline-free fetal bovine serum (FBS) and 250 μg/mL Zeocin. Clones were analyzed for expression of androgen receptor protein in the presence and absence of 10 ng/ml doxycycline (Sigma Cat #D9891), and a single doxycycline-inducible clone (hereinafter “SC3”) was selected for use in downstream assays.
(§3) The SC3 cells were seeded on poly-D-lysine coated, black clear-bottom 384-well plates at 2500/well, in 25 μL Phenol Red Free Dulbecco's Modified Eagle Medium (DMEM) supplemented with 10% w/w charcoal-dextran treated fetal bovine serum (FBS) and 1% w/w pen-strep, with or without 10 ng/mL doxycycline. Pen-Strep is a commercially available mixture of penicillin G and streptomycin, which is used in mammalian cell culture media to prevent bacterial contamination. Phenol Red Free Dulbecco's Modified Eagle Medium (DMEM) supplemented with 10% w/w charcoal-dextran treated fetal bovine serum (FBS) and 1% w/w pen-strep, with or without 10 ng/mL doxycycline is herein referred to as Treatment Medium. Following seeding of cells in the plates, the plates were spun at 300×g for 30 seconds, then equilibrated to room temperature for 30 minutes, and then deposited in a humidified tissue culture incubator maintained at 37° C. with 5% CO2.
(§4) At 24 hours after seeding of the cells, dilutions of test compound were prepared in DMSO and dissolved in Treatment Medium, to achieve a final DMSO concentration of 0.5% w/w, thereby providing the Test Compound Solution. A 25 μL aliquot of the Test Compound Solution was added to cells in the well plates. An equal volume of a solution containing DMSO and Treatment Medium was used as a negative control. Following treatment of cells with Test Compound Solution or said equal volume of a solution containing DMSO and Treatment Medium, the plates were spun at 300×g for 30 seconds, and then left in an incubator for 72 hours.
(§5) At the end of the treatment duration, cell viability was quantified with CellTiter-Glo 2.0 reagent (Promega Cat #G9243). For this purpose, plates were equilibrated to room temperature for 30 minutes, and then 25 μL of CellTiter-Glo 2.0 reagent was added to cells in the plate wells. Plates were then agitated on a shaker for two minutes at 500 rpm and subsequently incubated at room temperature for 10 minutes. Following incubation, the plates were spun at 3000×g for 30 seconds, then sealed with an optical adhesive cover, and luminescence readings were measured with an EnVision Plate Reader.
(§6) Data was normalized using zero luminescence for baseline. A four-parameter non-linear regression curve fit was applied to dose-response data in GraphPad Prism data analysis software to determine the half-maximal growth inhibitory concentration (GI50) for each test compound.

[2] = test system: T-Rex 293 cell line SC3 cells lacking increased expression of androgen receptor protein; assay: Cellular growth inhibition, T-Rex 293 SC3 cells lacking increased androgen receptor expression (no doxycycline), CellTiter-Glo; format: cell-based; details: T-Rex 293 SC3 cells lacking increased androgen receptor expression (not exposed to doxycycline), 72 hours, CellTiter-Glo; read-out: GI50
Method: as §1, §2, §3, §4, §5, §6

VCaP cells = assay: Cellular growth inhibition assay for VCaP cells, CellTiter-Glo; format: cell-based, human; details: VCaP cells, 72 hours, CellTiter-Glo, read-out: GI50
Method: VCaP cells were purchased from American Type Cell Culture (ATCC Cat #CRL2876) and then seeded on poly-D-lysine coated, black clear-bottom 384-well plates at 5000/well in 25 μL Dulbecco's Modified Eagle Medium (DMEM) supplemented with 10% w/w Fetal bovine serum (FBS) and 1% w/w Pen-Strep. Pen-Strep is a commercially available mixture of penicillin G and streptomycin, which is used in mammalian cell culture media to prevent bacterial contamination. Dulbecco's Modified Eagle Medium (DMEM) supplemented with 10% w/w fetal bovine serum (FBS) and 1% w/w Pen-Strep is herein referred to as Treatment Medium. Following seeding of cells in the plates, the plates were spun at 300×g for 30 seconds, then equilibrated to room temperature for 30 minutes, and then deposited in a humidified tissue culture incubator maintained at 37° C. with 5% CO2.
as §4, §5, §6

Row | Compound | GI50 (VCaP cells) [nM] | GI50 (VCaP cells; Homo sapiens) [nM] | GI50 [1] [nM] | GI50 [2] [nM]
1 | CCS(=O)(=O)c1ccc(Oc2cccc(CCCC3CCN(c4ncc(C(=O)N[C@H]5CC[C@H](Oc6ccc(C#N)c(Cl)c6)CC5)cn4)CC3)c2F)c(-c2cn(C)c(=O)c3[nH]ccc23)c1 [I-65] | < 500 | – | < 500 | > 3000
2 | Cn1cc(-c2cc(S(=O)(=O)CCCN3CCN(c4ccc(C(=O)N[C@H]5CC[C@H](Oc6ccc(C#N)c(Cl)c6)CC5)nn4)CC3)ccc2Oc2ccc(F)cc2F)c2cc[nH]c2c1=O [I-93] | < 500 | – | < 500 | > 3000
3 | Cn1cc(-c2cc(C(C)(C)O)ccc2Oc2ccc(C3CC4(CCN(c5ccc(C(=O)N[C@H]6CC[C@H](Oc7ccc(C#N)c(Cl)c7)CC6)nn5)CC4)C3)cc2)c2cc[nH]c2c1=O [I-117] | < 500 | – | < 500 | < 500
4 | Cn1cc(-c2cc(C(C)(C)O)ccc2Oc2ccc(CC3CC4(C3)CN(c3ccc(C(=O)N[C@H]5CC[C@H](Oc6ccc(C#N)c(Cl)c6)CC5)nn3)C4)cc2)c2cc[nH]c2c1=O [I-118] | – | < 500 | < 500 | < 500
5 | Cn1cc(-c2cc(C(C)(C)O)ccc2Oc2ccc(CN3CC4(CCN(c5ccc(C(=O)N[C@H]6CC[C@H](Oc7ccc(C#N)c(Cl)c7)CC6)nn5)CC4)C3)cc2)c2cc[nH]c2c1=O [I-120] | – | < 500 | < 500 | < 500
6 | Cn1cc(-c2cc(C(C)(C)O)ccc2Oc2ccc(CCN3CC4(C3)CN(c3ccc(C(=O)N[C@H]5CC[C@H](Oc6ccc(C#N)c(Cl)c6)CC5)nn3)C4)cc2)c2cc[nH]c2c1=O [I-121] | < 500 | – | < 500 | 500 to 1500
7 | Cn1cc(-c2cc(C(C)(C)O)ccc2Oc2cccc(N3CC(N(C4CC4)C4CCN(c5ccc(C(=O)N[C@H]6CC[C@H](Oc7ccc(C#N)c(Cl)c7)CC6)nn5)CC4)C3)c2F)c2cc[nH]c2c1=O [I-145] | < 500 | – | < 500 | > 3000
8 | Cn1cc(-c2cc(NC(=O)CCC3CCN(c4ccc(C(=O)NC5CCC(Oc6ccc(C#N)c(Cl)c6)CC5)nn4)CC3)ccc2Oc2ccc(F)cc2F)c2cc[nH]c2c1=O (stereo not drawn) [I-212, N-[4-(3-chloro-4-cyano-phenoxy)cyclohexyl]-6-[4-[3-[4-(2,4-difluorophenoxy)-3-(6-methyl-7-oxo-1H-pyrrolo[2,3-c]pyridin-4-yl)anilino]-3-oxo-propyl]-1-piperidyl]pyridazine-3-carboxamide] | – | > 3000 | < 500 | > 3000
9 | Cn1cc(-c2cc(NC(=O)CCCCCOC3CCN(c4ccc(C(=O)N[C@H]5CC[C@H](Oc6ccc(C#N)c(Cl)c6)CC5)nn4)CC3)ccc2Oc2ccc(F)cc2F)c2cc[nH]c2c1=O [I-215] | > 3000 | – | < 500 | 500 to 1500
10 | Cn1cc(-c2cc(C3(O)COC3)ccc2Oc2ccc(OCC3CCN(c4ccc(C(=O)NC5CCC(Oc6ccc(C#N)c(Cl)c6)CC5)nn4)CC3)cc2)c2cc[nH]c2c1=O (stereo not drawn) [I-236, N-[4-(3-chloro-4-cyano-phenoxy)cyclohexyl]-6-[4-[[4-[4-(3-hydroxyoxetan-3-yl)-2-(6-methyl-7-oxo-1H-pyrrolo[2,3-c]pyridin-4-yl)phenoxy]phenoxy]methyl]-1-piperidyl]pyridazine-3-carboxamide] | < 500 | – | < 500 | > 3000
11 | CCS(=O)(=O)Nc1ccc(Oc2ccc(CCC3CCN(c4ccc(C(=O)NC5CCC(Oc6ccc(C#N)c(Cl)c6)CC5)nn4)CC3)c(F)c2)c(-c2cn(C)c(=O)c3ccccc23)c1 (stereo not drawn) [I-242, N-[4-(3-chloro-4-cyano-phenoxy)cyclohexyl]-6-[4-[2-[4-[4-(ethylsulfonylamino)-2-(2-methyl-1-oxo-4-isoquinolyl)phenoxy]-2-fluoro-phenyl]ethyl]-1-piperidyl]pyridazine-3-carboxamide] | – | < 500 | < 500 | > 3000

Now from value to compound, other results behind:

Row | GI50 (VCaP cells) [nM] | GI50 (VCaP cells; Homo sapiens) [nM] | Compound | GI50 [1] [nM] | GI50 [2] [nM]
12 | < 500 | – | CCS(=O)(=O)c1ccc(Oc2ccc(CCCCC3CCN(c4ccc(C(=O)N[C@H]5CC[C@H](Oc6ccc(C#N)c(Cl)c6)CC5)nn4)CC3)cc2)c(-c2cn(C)c(=O)c3[nH]ccc23)c1 [I-64] | < 500 | 500 to 1500
13 | – | < 500 | CCS(=O)(=O)c1ccc(Oc2ccc(CCCC3CCN(c4ccc(C(=O)N[C@H]5CC[C@H](Oc6ccc(C#N)c(Cl)c6)CC5)nn4)CC3)c(F)c2)c(-c2cn(C)c(=O)c3[nH]ccc23)c1 [I-83] | < 500 | < 500
14 | – | 500 to 1500 | Cn1cc(-c2cc(C(C)(C)O)ccc2Cc2ccc(CCC3CCN(c4ccc(C(=O)NC5CCC(Oc6ccc(C#N)c(Cl)c6)CC5)nn4)CC3)cc2)c2cc[nH]c2c1=O (stereo not drawn) [I-205, N-[4-(3-chloro-4-cyano-phenoxy)cyclohexyl]-6-[4-[2-[4-[[4-(1-hydroxy-1-methyl-ethyl)-2-(6-methyl-7-oxo-1H-pyrrolo[2,3-c]pyridin-4-yl)phenyl]methyl]phenyl]ethyl]-1-piperidyl]pyridazine-3-carboxamide] | < 500 | > 3000
15 | > 3000 | – | CCS(=O)(=O)c1ccc(Oc2ccc(CCC3CCN(c4ccc(C(=O)N[C@H]5CC[C@H](Oc6ccc(C#N)c(Cl)c6)CC5)nn4)CC3)cn2)c(-c2cn(C)c(=O)c3[nH]ccc23)c1 [I-220] | < 500 | > 3000
16 | – | < 500 | Cn1cc(-c2cc(CS(C)(=O)=O)ccc2Oc2ccc(CCC3CCN(c4ccc(C(=O)NC5CCC(Oc6ccc(C#N)c(Cl)c6)CC5)nn4)CC3)cc2)c2cc[nH]c2c1=O (stereo not drawn) [I-237, N-[4-(3-chloro-4-cyano-phenoxy)cyclohexyl]-6-[4-[2-[4-[2-(6-methyl-7-oxo-1H-pyrrolo[2,3-c]pyridin-4-yl)-4-(methylsulfonylmethyl)phenoxy]phenyl]ethyl]-1-piperidyl]pyridazine-3-carboxamide] | < 500 | < 500
17 | – | < 500 | CCS(=O)(=O)c1ccc(-c2cn(C)c(=O)c3[nH]ccc23)c(-n2cc(CCC3CCN(c4ccc(C(=O)NC5CCC(Oc6ccc(C#N)c(Cl)c6)CC5)nn4)CC3)ncc2=O)c1 (stereo not drawn) [I-238, N-[4-(3-chloro-4-cyano-phenoxy)cyclohexyl]-6-[4-[2-[4-[5-ethylsulfonyl-2-(6-methyl-7-oxo-1H-pyrrolo[2,3-c]pyridin-4-yl)phenyl]-5-oxo-pyrazin-2-yl]ethyl]-1-piperidyl]pyridazine-3-carboxamide] | > 3000 | > 3000
18 | – | < 500 | Cn1cc(-c2cc(Br)ccc2Oc2ccc(CCC3CCN(c4ccc(C(=O)NC5CCC(Oc6ccc(C#N)c(Cl)c6)CC5)nn4)CC3)cc2)c2cc[nH]c2c1=O (stereo not drawn) [I-241, 6-[4-[2-[4-[4-bromo-2-(6-methyl-7-oxo-1H-pyrrolo[2,3-c]pyridin-4-yl)phenoxy]phenyl]ethyl]-1-piperidyl]-N-[4-(3-chloro-4-cyano-phenoxy)cyclohexyl]pyridazine-3-carboxamide] | < 500 | > 3000
